Test results as given in patent publication US12171834B2, “Compositions and methods for inhibiting the activity of LAR family phosphatases” (CASE WESTERN RESERVE UNIVERSITY, priority 2012, dated 2024).
Values joined by “and” are separate entries in the source; they are usually repeats but may differ in a detail not shown here. Equal values may be shown once.

What was measured:
[1] = system: 5HT expression in the lumbar spinal cord; test: 5HT expression (axonal density) in lumbar spinal cord after spinal cord injury; type: in vivo, rat
Protocol: (§1) This Example describes methods of generating a moderate/severe contusive spinal cord injury with the Infinite Horizon device in adult female Sprague-Dawley rats for spinal cord injury (SCI) assays used in Examples 5-8. Briefly, rats were deeply anesthetized with a cocktail of ketamine/xylazine. Once under, the back was shaved and sterilized with Iodine and ethanol. Using a dorsal entry, the […] vertebrae 7-10 were exposed by a skin incision and at segments 8 and 9 a laminectomy was performed to expose the intact spinal cord. The spinal column and cord were stabilized in a stereotaxic frame prior to contusive impact. Finally, rats underwent a 250 kd Infinite Horizon contusion centered at the midline with no dwell time. Following muscle suturing and skin stapling, the animals were placed on a 37° C. hot pad and allowed ample access to food and water upon awakening from surgery. Pain was monitored, and animals in distress received a low dose of Marcaine at the injection site. Saline and Gentamycin (antibiotic) were given for 5 days post-surgery to prevent bladder infections. This experiment was performed start to finish 3 times. N−=15 ISP, N=11 vehicle and N=6 ILP.
(§2) Animals were randomly divided into three groups, vehicle control, ISP, or ILP. Lyophilized ISP or ILP peptide was first dissolved in sterile water at a concentration of 2.5 mM. To create individual treatments for each animal, the peptide was further diluted to a concentration of 5 μM in a vehicle solution of 5% DMSO in sterile saline. 25 ml of each treatment (ILP, ISP or vehicle) was alliquoted into 50 individual Eppendorf tubes, each containing 500 μl. The drugs were stored at −20 and thawed immediately prior to use. […]
For axonal density analysis, the gray matter was outlined and mean pixel intensity was calculated in ImageJ. […] One section selected randomly every 200 μm was analyzed over a total distance of 2 cm […]. […]

[2] = system: contusive spinal cord injury in adult female Sprague-Dawley rats; test: grid-walk test after spinal cord injury; type: in vivo, rat; details: 12 weeks after spinal cord injury; for foot faults in the grid walk test versus vehicle: vehicle 6 foot-faults per meter
Protocol: as §1, §2
Animals were allowed to freely roam on a wire grid (100 cm×75 cm, with 1 cm^2 gaps in the wire) 12 weeks after spinal cord injury. While an overhead camera tracked and calculated the total distance traveled (Ethovision), the number of foot-faults was counted manually by a blinded observer. […]

[3] = system: contusive spinal cord injury in adult female Sprague-Dawley rats; test: Basso, Beattie and Bresnahan (BBB) scale for post-SCI locomotion; type: in vivo, rat; details: for average BBB score / BBB recovery over the course of the next 10 weeks: 5 μM, 500 μl subcutaneously daily; for BBB recovery over the course of the next 10 weeks: after 2 weeks post injury
Protocol: as §1
(§3) Animals were randomly divided into three groups, vehicle control, ISP, or ILP. Lyophilized ISP or ILP peptide was first dissolved in sterile water at a concentration of 2.5 mM. To create individual treatments for each animal, the peptide was further diluted to a concentration of 5 μM in a vehicle solution of 5% DMSO in sterile saline. 25 ml of each treatment (ILP, ISP or vehicle) was alliquoted into 50 individual Eppendorf tubes, each containing 500 μl. The drugs were stored at −20 and thawed immediately prior to use. Each animal received 500 μl of either vehicle, 5 μM ISP or 5 μM ILP subcutaneously into the back above the lesion each day, starting 1 day after injury and lasting 7 weeks (49 treatments, 11 μg/rat/day).
Animals were allowed to freely roam on a table-top for three minutes while their hindlimb movements and locomotor patterns were being scored by a blinded observer according to the Basso, Beattie and Bresnahan scale for post-SCI locomotion (Basso et al, 1995). Behavior was performed at post injury days 1, 4, 7 and then weekly for 10 additional weeks. Statistical analysis was conducted by repeated measures 2 way Anova.

[4] = system: growth cones of adult sensory DRG neurons on gradients of CSPG aggrecan; test: time-lapse microscopy of growth cone motility in CSPG spot assay; type: cell-based, rat; details: 4-6 days in vitro
Protocol: Adult female rat sensory dorsal root ganglion (DRG) neurons were obtained and grown on gradients of the chondroitin sulfate proteoglycan aggrecan as previously described. Glass bottom delta-T time-lapse dishes were coated with Poly-L-Lysine (PLL) and incubated at room temperature overnight. Spots were created by dissolving 2 mg/ml aggrecan in calcium and magnesium free hanks balanced salt solution (HBSS). Eight 2 μl dots were placed into one half of each dish and given ample time to dry onto the glass. The dishes were finally coated in 10 μg/ml laminin for 3 hours at 37° C. Following incubation, six thousand adult dissociated DRG neurons were added to each dish in neural basal-A media supplemented with Glutamax, Penn/strep and B27. The cells were allowed to grow for 4-6 days Immediately prior to the start of time lapse, the delta T dishes were sealed with a glass coverslip. 100× time-lapse microscopy was performed with a heated objective and heated stage to keep the cells at 37 degrees. Images were obtained every 30 seconds and stitched together to create a time lapse movie. Growth cone and filopodial dynamics were tracked and quantified manually with Metamorph.

[5] = system: contusive spinal cord injury in adult female Sprague-Dawley rats; test: urinary behavior in metabolic cages after spinal cord injury; type: in vivo, rat
Protocol: as §1, §3
Animals were placed in metabolic cages overnight for a dark cycle (16 hours). The urine was separated and collected into a syringe linked to a force transducer. The increase in force corresponding to each individual void was plotted in spike-2. The graphs were sampled into excel and manually confirmed to count the total number of voids and the average volume of each void.

[6] = system: contusive spinal cord injury in adult female Sprague-Dawley rats; test: recovery beyond vehicle across behaviors after spinal cord injury; type: in vivo, rat
Protocol: as §1
Animals were randomly divided into three groups, vehicle control, ISP, or ILP. Lyophilized ISP or ILP peptide was first dissolved in sterile water at a concentration of 2.5 mM. […]

[7] = system: adult dissociated dorsal root ganglia neurons on gradients of CSPG; test: spot assay: processes crossing CSPG (aggrecan) gradient; type: cell-based, rat; details: for neurons extend processes that cross CSPG gradients: peptide added at time of plating
Protocol: Adult female rat sensory dorsal root ganglion (DRG) neurons were obtained and grown on gradients of the chondroitin sulfate proteoglycan aggrecan as previously described. Glass bottom delta-T time-lapse dishes were coated with Poly-L-Lysine (PLL) and incubated at room temperature overnight. Spots were created by dissolving 2 mg/ml aggrecan in calcium and magnesium free hanks balanced salt solution (HBSS). Eight 2 μl dots were placed into one half of each dish and given ample time to dry onto the glass. The dishes were finally coated in 10 μg/ml laminin for 3 hours at 37° C. Following incubation, six thousand adult dissociated DRG neurons were added to each dish in neural basal-A media supplemented with Glutamax, Penn/strep and B27. […] In this Example, the spot assay was conducted on glass coverslips with a few alterations from the technique used for time-lapse microscopy. Following PLL treatment, the coverslips were dried and coated with a small amount of nitrocellulose to increase adhesive interactions needed for spot formation. Following drying of nitrocellulose, 4 spots were dotted onto each coverslip (one in each quadrant) using 700 μg/ml aggrecan, 5 μg/ml laminin dissolved into HBSS. Following drying, the coverslips were coated in 5 μg/ml laminin at 37 degrees C. for 3 hours. 2,000 adult dissociated dorsal root ganglia neurons were added to each coverslip in neural basal-A media supplemented with Glutamax, Penn/strep and B27. In addition, peptides were added at the required concentration at the time of plating. Cells were allowed to grow for 5 days prior to fixation in 4% Paraformaldehyde. These peptides were ordered from Genscript and dissolved in water and stored long-term at −80° C. Peptides were added to media at time of neuronal plating. After 5 days in vitro, the cells were fixed and stained for mouse anti-B3Tubulin (green). The number of processes completely spanning the gradient were counted and normalized to the number of neuronal cell bodies on each individual spot.

[8] = system: contusive spinal cord injury in adult female Sprague-Dawley rats; test: terminal urodynamic analyses after spinal cord injury; type: in vivo, rat; details: 14 weeks post injury
Protocol: as §1, with “ILP. […]” for “ILP.”
In a terminal experiment, animals were anesthetized with Urethane at 14 weeks post injury. […] Both muscle activity and pressure (measured through the catheter) were plotted in spike2.

[9] = target: PTPσ (Homo sapiens, UniProt Q13332); test: pull-down assays, wedge domain with PTPσ; type: binding
[10] = target: full length LAR (Homo sapiens, UniProt P10586); test: pull-down assays, wedge domain with full length LAR; type: binding
Sequence of full length LAR (P10586 30-1907, species assumed): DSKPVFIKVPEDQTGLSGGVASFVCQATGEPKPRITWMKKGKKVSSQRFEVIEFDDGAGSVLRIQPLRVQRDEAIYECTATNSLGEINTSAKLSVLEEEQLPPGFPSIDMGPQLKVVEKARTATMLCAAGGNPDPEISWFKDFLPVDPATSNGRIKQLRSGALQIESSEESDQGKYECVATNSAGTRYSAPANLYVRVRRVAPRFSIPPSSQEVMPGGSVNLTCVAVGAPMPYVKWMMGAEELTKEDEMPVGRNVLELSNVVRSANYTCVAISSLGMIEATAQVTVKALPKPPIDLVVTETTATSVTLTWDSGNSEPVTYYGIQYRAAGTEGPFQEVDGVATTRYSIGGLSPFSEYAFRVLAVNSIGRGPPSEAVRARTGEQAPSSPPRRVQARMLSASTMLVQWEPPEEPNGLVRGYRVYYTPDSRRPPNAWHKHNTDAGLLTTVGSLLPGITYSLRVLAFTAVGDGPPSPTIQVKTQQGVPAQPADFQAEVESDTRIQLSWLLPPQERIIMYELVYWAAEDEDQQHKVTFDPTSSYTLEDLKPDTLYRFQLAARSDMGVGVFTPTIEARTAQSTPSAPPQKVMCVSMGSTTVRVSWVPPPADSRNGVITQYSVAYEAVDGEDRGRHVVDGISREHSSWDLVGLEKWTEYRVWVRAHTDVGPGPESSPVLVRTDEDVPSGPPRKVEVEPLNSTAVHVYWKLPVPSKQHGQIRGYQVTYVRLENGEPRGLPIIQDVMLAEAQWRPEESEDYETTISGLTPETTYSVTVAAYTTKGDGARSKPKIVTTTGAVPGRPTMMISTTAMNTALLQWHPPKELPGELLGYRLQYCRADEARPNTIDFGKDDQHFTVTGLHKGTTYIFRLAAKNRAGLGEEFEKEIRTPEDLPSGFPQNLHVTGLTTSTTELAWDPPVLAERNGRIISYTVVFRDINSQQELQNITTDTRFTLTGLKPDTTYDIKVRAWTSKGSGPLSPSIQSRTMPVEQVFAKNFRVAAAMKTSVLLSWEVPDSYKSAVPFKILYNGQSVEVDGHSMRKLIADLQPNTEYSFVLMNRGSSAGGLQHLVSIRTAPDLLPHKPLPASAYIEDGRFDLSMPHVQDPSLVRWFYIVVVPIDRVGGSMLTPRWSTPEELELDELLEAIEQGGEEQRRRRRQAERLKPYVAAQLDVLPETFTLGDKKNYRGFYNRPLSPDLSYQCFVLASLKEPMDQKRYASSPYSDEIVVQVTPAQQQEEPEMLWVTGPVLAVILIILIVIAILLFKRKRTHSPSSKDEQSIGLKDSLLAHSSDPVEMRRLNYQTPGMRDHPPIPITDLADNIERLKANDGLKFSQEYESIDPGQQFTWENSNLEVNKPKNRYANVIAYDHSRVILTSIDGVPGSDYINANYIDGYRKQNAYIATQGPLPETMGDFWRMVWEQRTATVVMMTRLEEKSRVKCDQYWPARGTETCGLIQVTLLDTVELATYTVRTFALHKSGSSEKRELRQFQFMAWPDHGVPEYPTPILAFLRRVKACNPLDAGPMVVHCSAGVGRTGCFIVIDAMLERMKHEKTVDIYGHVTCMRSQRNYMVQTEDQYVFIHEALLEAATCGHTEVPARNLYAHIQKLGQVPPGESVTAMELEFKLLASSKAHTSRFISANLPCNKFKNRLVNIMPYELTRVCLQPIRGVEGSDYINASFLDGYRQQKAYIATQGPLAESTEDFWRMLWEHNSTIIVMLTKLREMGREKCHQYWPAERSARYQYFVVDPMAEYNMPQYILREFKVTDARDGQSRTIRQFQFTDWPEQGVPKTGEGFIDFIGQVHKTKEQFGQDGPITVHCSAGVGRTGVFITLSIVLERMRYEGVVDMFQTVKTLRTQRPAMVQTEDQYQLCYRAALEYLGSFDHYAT

Sequence of PTPσ (Q13332 30-1948): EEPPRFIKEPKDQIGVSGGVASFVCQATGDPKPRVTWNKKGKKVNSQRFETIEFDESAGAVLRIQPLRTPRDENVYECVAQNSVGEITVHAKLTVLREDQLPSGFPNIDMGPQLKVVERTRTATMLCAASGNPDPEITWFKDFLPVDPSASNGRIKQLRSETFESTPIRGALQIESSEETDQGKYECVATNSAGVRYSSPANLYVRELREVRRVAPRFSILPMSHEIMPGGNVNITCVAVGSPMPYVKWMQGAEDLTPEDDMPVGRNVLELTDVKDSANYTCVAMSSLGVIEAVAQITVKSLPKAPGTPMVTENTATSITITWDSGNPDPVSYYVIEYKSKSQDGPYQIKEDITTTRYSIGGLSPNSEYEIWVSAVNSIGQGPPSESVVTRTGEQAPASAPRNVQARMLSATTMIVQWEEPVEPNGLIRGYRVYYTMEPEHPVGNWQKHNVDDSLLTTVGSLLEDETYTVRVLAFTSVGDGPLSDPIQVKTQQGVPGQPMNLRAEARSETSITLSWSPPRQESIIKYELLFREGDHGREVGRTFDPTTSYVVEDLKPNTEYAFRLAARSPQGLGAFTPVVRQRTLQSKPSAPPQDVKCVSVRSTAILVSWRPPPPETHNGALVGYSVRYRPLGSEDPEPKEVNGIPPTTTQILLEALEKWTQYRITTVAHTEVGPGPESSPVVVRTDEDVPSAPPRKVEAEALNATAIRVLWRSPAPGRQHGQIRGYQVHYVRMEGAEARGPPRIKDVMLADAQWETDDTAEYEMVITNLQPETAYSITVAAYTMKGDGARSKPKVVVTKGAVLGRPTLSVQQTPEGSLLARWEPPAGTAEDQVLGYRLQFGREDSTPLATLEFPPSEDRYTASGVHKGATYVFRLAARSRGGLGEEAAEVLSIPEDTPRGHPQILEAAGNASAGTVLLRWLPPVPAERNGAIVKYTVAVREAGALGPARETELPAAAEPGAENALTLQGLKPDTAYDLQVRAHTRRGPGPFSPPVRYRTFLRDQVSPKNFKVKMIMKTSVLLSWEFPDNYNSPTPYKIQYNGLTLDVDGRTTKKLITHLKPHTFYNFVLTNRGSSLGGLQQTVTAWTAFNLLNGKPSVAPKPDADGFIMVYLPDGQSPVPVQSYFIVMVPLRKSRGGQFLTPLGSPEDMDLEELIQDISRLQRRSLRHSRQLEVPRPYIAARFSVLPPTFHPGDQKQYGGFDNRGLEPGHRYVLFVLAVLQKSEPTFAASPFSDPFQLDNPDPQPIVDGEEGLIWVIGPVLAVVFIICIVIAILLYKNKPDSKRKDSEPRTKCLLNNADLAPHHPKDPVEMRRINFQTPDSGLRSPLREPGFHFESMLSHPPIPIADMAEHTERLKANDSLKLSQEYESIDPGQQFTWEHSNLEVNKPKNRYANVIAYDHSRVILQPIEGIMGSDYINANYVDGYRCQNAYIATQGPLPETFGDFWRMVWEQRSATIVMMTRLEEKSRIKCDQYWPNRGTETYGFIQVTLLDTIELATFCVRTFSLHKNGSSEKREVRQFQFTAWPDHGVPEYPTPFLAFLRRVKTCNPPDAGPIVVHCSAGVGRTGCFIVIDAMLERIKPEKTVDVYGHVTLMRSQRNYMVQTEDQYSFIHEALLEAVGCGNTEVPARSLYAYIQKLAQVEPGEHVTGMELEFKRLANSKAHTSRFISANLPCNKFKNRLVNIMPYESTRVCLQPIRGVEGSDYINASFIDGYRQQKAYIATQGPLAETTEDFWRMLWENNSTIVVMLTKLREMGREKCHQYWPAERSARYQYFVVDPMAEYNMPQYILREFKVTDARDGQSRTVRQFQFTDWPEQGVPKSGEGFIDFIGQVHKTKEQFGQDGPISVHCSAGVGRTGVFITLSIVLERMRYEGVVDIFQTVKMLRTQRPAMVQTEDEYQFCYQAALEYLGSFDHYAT

NH2GRKKRRQRRRCDMAEHMERLKANDSLKLSQEYESI-NH2 [ISP]
5HT staining throughout the gray matter ([1]; 14 weeks following spinal cord injury, lumbar spinal cord): dramatic increase
quantified 5HT expression throughout the gray matter ([1]; FIG. 15): significantly increased
5HT expression in non-responders ([1]; the two ISP non-responders): did not show a dramatic rise
foot faults made by several individual animals ([2]; several animals): less than 3 foot faults
foot faults in the grid walk test versus vehicle [2]: significantly fewer foot faults
average BBB score ([3]; 6 weeks): 12
average BBB score ([3]; 7 weeks): greater than 13
BBB recovery over the course of the next 10 weeks [3]: continued to recover
BBB score reached by individual animals ([3]; individual animals): 19 and 18.5
animals that regained at least frequent coordinated stepping ([3]; rat, in vivo): 7 of 15
axonal stabilization and over adhesion in time-lapse [4]: prevented axonal stabilization and over adhesion
growth cones still motile ([4]; 8% in the control condition): 65%
recovery of void frequency ([5]; 4 or 8 weeks post injury): no significant recovery
void frequency ([5]; 12 weeks post injury): significant increase in void frequency
animals reaching naïve micturition frequency ([5]; rat, in vivo): multiple animals reaching normal (naïve) micturition frequency levels
increase of post-injury void frequency on average ([5]; versus vehicle): two fold
animals with significant behavioral improvements ([6]; greater than two standard deviations better than vehicle mean): 13 of 15
animals regaining significant function in all three behaviors ([6]; rat, in vivo): 4 animals
dose dependence of gradient crossing [7]: dose dependent
concentration giving optimal crossing of CSPG gradient ([7]; 5 days in vitro): 2.5 μm
neurons extend processes that cross CSPG gradients ([7]; 5 days in vitro): allows neurons to extend processes that cross CSPG gradients
coordinated bladder contractions with external urethral sphincter bursting [8]: many animals recovered coordinated bladder contractions with patterned external urethral sphincter bursting

NH2GRKKRRQRRRCDLADNIERLKANDGLKFSQEYESI-NH2 (H-GRKKRRQRRRCDLADNIERLKANDGLKFSQEYESI-NH2; listed as Homo sapiens) [ILP, LAR wedge domain peptide conjugated to HIV-TAT]
foot faults in the grid walk test versus vehicle [2]: very slight insignificant improvement
BBB recovery over the course of the next 10 weeks [3]: recovered only slightly beyond this point
void frequency (absolute) ([5]; naïve animals urinate twice per hour): once every two hours
volume/void ([5]; versus naïve animals): significantly increased
neurons extend processes that cross CSPG gradients ([7]; 5 days in vitro): also allows neurons to traverse gradients of CSPG

DLADNIERLKANDGLKFSQEYESI (listed as Rattus rattus) [wedge domain of LAR, 24 amino acid wedge-shaped helix-loop-helix motif of LAR used in pull-down assays]
binding to sigma [9]: unable to bind to sigma
interaction with full length LAR [10]: able to specifically interact with full length LAR

NH2GRKKRRQRRRCIREDDSLMLYALAQEKKESNMHES-NH2 (H-GRKKRRQRRRCIREDDSLMLYALAQEKKESNMHES-NH2; listed as Homo sapiens) [scrambled ISP-TAT peptide, reference compound]
neurons extend processes that cross CSPG gradients ([7]; 5 days in vitro): Neither vehicle control nor the scrambled ISP-TAT peptide allowed neuronal extensions across the gradient
